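Step 1: Grow cells in 96-well plates. Step 2: Expose to compound for 48 hours at 5 concentrations. Step 3: Interpolate endpoints linearly; if unreached, use highest concentration. Abbreviation: GI50, concentration required for 50% inhibition of growth.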 Active and inactive are the calls of the source. Rule as the data show it: active = GI50 up to about 1.1 µM and inactive = higher.
Columns and labels:
Assay in all cases: inhibition of tumour cell growth, NCI panel, 48 h
CCRF-CEM = tested on: CCRF-CEM
HT-29 = tested on: HT-29
COLO 205 = tested on: COLO 205
NCI/ADR-RES = tested on: NCI/ADR-RES
K562 = tested on: K562
OVCAR-8 = tested on: OVCAR-8
MDA-MB-435 = tested on: MDA-MB-435
HL-60 = tested on: HL-60
PC-3 = tested on: PC-3
HOP-62 = tested on: HOP-62
HOP-92 = tested on: HOP-92
KM12 = tested on: KM12
SF-539 = tested on: SF-539
786-0 = tested on: 786-0
RPMI-8226 = tested on: RPMI-8226
MCF7 = tested on: MCF7
DU-145 = tested on: DU-145
SNB-75 = tested on: SNB-75
SNB-19 = tested on: SNB-19
HCC 2998 = tested on: HCC 2998
SK-MEL-28 = tested on: SK-MEL-28
SN12C = tested on: SN12C
UACC-62 = tested on: UACC-62
HCT-15 = tested on: HCT-15
MDA-N = tested on: MDA-N
UACC-257 = tested on: UACC-257
A498 = tested on: A498
OVCAR-5 = tested on: OVCAR-5
MDA-MB-231 = tested on: MDA-MB-231
SF-295 = tested on: SF-295
OVCAR-3 = tested on: OVCAR-3
SW-620 = tested on: SW-620
NCI-H522 = tested on: NCI-H522
EKVX = tested on: EKVX
SF-268 = tested on: SF-268
CAKI-1 = tested on: CAKI-1
SR = tested on: SR
MOLT-4 = tested on: MOLT-4
UO-31 = tested on: UO-31
NCI-H460 = tested on: NCI-H460
NCI-H23 = tested on: NCI-H23
T47D = tested on: T47D
SK-MEL-2 = tested on: SK-MEL-2
OVCAR-4 = tested on: OVCAR-4
RXF 393 = tested on: RXF 393
SK-OV-3 = tested on: SK-OV-3
A549 = tested on: A549
TK-10 = tested on: TK-10
M14 = tested on: M14
ACHN = tested on: ACHN
NCI-H226 = tested on: NCI-H226
IGROV-1 = tested on: IGROV-1
Hs-578T = tested on: Hs-578T
LOX IMVI = tested on: LOX IMVI
BT-549 = tested on: BT-549
U-251 = tested on: U-251
SK-MEL-5 = tested on: SK-MEL-5
HCT-116 = tested on: HCT-116
Malme-3M = tested on: Malme-3M

## COC(=O)[C@@H]1C[C@@H](O)CN1C(=O)c1ccc([N+](=O)[O-])cc1[N+](=O)[O-]
CCRF-CEM
  GI50: > 100 µM (inactive)
HT-29
  GI50: 51.2 µM (inactive)
COLO 205
  GI50: 50 µM (inactive)
NCI/ADR-RES
  GI50: > 100 µM (inactive)
K562
  GI50: > 100 µM (inactive)
OVCAR-8
  GI50: > 100 µM (inactive)
MDA-MB-435
  GI50: > 100 µM (inactive)
HL-60
  GI50: > 100 µM (inactive)
PC-3
  GI50: > 100 µM (inactive)
HOP-62
  GI50: > 100 µM (inactive)
HOP-92
  GI50: > 100 µM (inactive)
KM12
  GI50: > 100 µM (inactive)
SF-539
  GI50: > 100 µM (inactive)
786-0
  GI50: > 100 µM (inactive)
RPMI-8226
  GI50: > 100 µM (inactive)
MCF7
  GI50: > 100 µM (inactive)
DU-145
  GI50: > 100 µM (inactive)
SNB-75
  GI50: > 100 µM (inactive)
SNB-19
  GI50: > 100 µM (inactive)
HCC 2998
  GI50: > 100 µM (inactive)
SK-MEL-28
  GI50: > 100 µM (inactive)
SN12C
  GI50: > 100 µM (inactive)
UACC-62
  GI50: > 100 µM (inactive)
HCT-15
  GI50: > 100 µM
MDA-N
  GI50: > 100 µM (inactive)
UACC-257
  GI50: > 100 µM (inactive)
A498
  GI50: > 100 µM (inactive)
OVCAR-5
  GI50: > 100 µM (inactive)
MDA-MB-231
  GI50: > 100 µM (inactive)
SF-295
  GI50: > 100 µM (inactive)
OVCAR-3
  GI50: 39.2 µM (inactive)
SW-620
  GI50: > 100 µM (inactive)
NCI-H522
  GI50: > 100 µM (inactive)
EKVX
  GI50: > 100 µM (inactive)
SF-268
  GI50: > 100 µM (inactive)
CAKI-1
  GI50: > 100 µM (inactive)
SR
  GI50: > 100 µM (inactive)
MOLT-4
  GI50: > 100 µM (inactive)
UO-31
  GI50: > 100 µM (inactive)
NCI-H460
  GI50: > 100 µM (inactive)
NCI-H23
  GI50: > 100 µM (inactive)
T47D
  GI50: > 100 µM (inactive)
SK-MEL-2
  GI50: > 100 µM (inactive)
OVCAR-4
  GI50: > 100 µM (inactive)
RXF 393
  GI50: > 100 µM (inactive)
SK-OV-3
  GI50: > 100 µM (inactive)
A549
  GI50: > 100 µM (inactive)
TK-10
  GI50: > 100 µM (inactive)
M14
  GI50: > 100 µM (inactive)
ACHN
  GI50: > 100 µM (inactive)
NCI-H226
  GI50: > 100 µM (inactive)
IGROV-1
  GI50: > 100 µM (inactive)
Hs-578T
  GI50: > 100 µM (inactive)
LOX IMVI
  GI50: > 100 µM (inactive)
BT-549
  GI50: > 100 µM (inactive)
U-251
  GI50: > 100 µM (inactive)
SK-MEL-5
  GI50: 96.6 µM (inactive)
HCT-116
  GI50: > 100 µM (inactive)

## COC(=O)[C@@H]1COC(C(C)(C)C)N1C(=O)C(c1ccccc1)c1ccccc1 (stereo partly specified)
CCRF-CEM
  GI50: 26.7 µM (inactive)
HT-29
  GI50: 55.8 µM (inactive)
COLO 205
  GI50: 61.7 µM (inactive)
NCI/ADR-RES
  GI50: 34 µM (inactive)
K562
  GI50: 19.5 µM (inactive)
OVCAR-8
  GI50: 44.1 µM (inactive)
MDA-MB-435
  GI50: 36.7 µM (inactive)
HL-60
  GI50: 45.3 µM (inactive)
PC-3
  GI50: 24.8 µM (inactive)
HOP-62
  GI50: > 100 µM (inactive)
HOP-92
  GI50: 37 µM (inactive)
KM12
  GI50: 43.6 µM (inactive)
SF-539
  GI50: 28.7 µM (inactive)
786-0
  GI50: 46.2 µM (inactive)
MCF7
  GI50: 64.3 µM (inactive)
DU-145
  GI50: > 100 µM (inactive)
SNB-75
  GI50: 32.4 µM (inactive)
SNB-19
  GI50: 40.9 µM (inactive)
HCC 2998
  GI50: 48.3 µM (inactive)
SK-MEL-28
  GI50: > 100 µM (inactive)
SN12C
  GI50: 32.1 µM (inactive)
UACC-62
  GI50: 44.1 µM (inactive)
HCT-15
  GI50: 35.4 µM
MDA-N
  GI50: 26 µM (inactive)
UACC-257
  GI50: 33.6 µM (inactive)
A498
  GI50: > 100 µM (inactive)
OVCAR-5
  GI50: > 100 µM (inactive)
MDA-MB-231
  GI50: 45.2 µM (inactive)
SF-295
  GI50: 60.1 µM (inactive)
OVCAR-3
  GI50: 39.2 µM (inactive)
SW-620
  GI50: 43.8 µM (inactive)
NCI-H522
  GI50: 59 µM (inactive)
EKVX
  GI50: 55.7 µM (inactive)
SF-268
  GI50: > 100 µM (inactive)
CAKI-1
  GI50: > 100 µM (inactive)
SR
  GI50: 0.446 µM (active)
MOLT-4
  GI50: 38.7 µM (inactive)
UO-31
  GI50: 52.5 µM (inactive)
NCI-H460
  GI50: 40.3 µM (inactive)
NCI-H23
  GI50: 81.7 µM (inactive)
T47D
  GI50: 62.8 µM (inactive)
SK-MEL-2
  GI50: 90.2 µM (inactive)
OVCAR-4
  GI50: 43.2 µM (inactive)
RXF 393
  GI50: 13.2 µM (inactive)
SK-OV-3
  GI50: 31.4 µM (inactive)
Malme-3M
  GI50: > 100 µM (inactive)
A549
  GI50: 65.8 µM (inactive)
TK-10
  GI50: 50.4 µM (inactive)
M14
  GI50: 52 µM (inactive)
ACHN
  GI50: 69.3 µM (inactive)
NCI-H226
  GI50: 49.7 µM (inactive)
IGROV-1
  GI50: 73.1 µM (inactive)
Hs-578T
  GI50: 55.5 µM (inactive)
LOX IMVI
  GI50: 22.6 µM (inactive)
BT-549
  GI50: > 100 µM (inactive)
U-251
  GI50: 42 µM (inactive)
SK-MEL-5
  GI50: 36.8 µM (inactive)
HCT-116
  GI50: 41.3 µM (inactive)

Source: ChEMBL document CHEMBL1201862, “PubChem BioAssay data set” (2004)
